Test results as given in PubChem BioAssay AID1963958 (Molecular Pharmacology Branch, DTP, NCI, 2024).

Test system: MDA-MB-231 multicell spheroids, viability
Test: Anticancer human tumor MDA-MB-231 cell line growth inhibition [PI3K];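 also: spheroids exposed to agents for seven days before reading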;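 as to viability, T/C: percent of vehicle control luminescence with DMSO treated spheroids as 100%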
Details: for IC50: curve of first compound; for viability, T/C: stronger effect = lower value
Summary of the method: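 Viability of mixed-cell spheroids was determined after exposure to pairwise combinations, one partner being inavolisib, alpelisib, duvelisib or copanlisib. Highest tested concentration matched clinical Cmax where known and 10 microM where not, descending in half-log steps.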

Compound `CNC(=O)c1ccc(N2C(=S)N(c3ccc(C#N)c(C(F)(F)F)c3)C(=O)C2(C)C)cc1F` + CC(Nc1ncnc2nc[nH]c12)c1cc2cccc(Cl)c2c(=O)n1-c1ccccc1 has an IC50 (second compound 0.0316 µM) greater than 10000 nM, an IC50 (second compound 0.1 µM) greater than 10000 nM and an IC50 (second compound 0.316 µM) greater than 10000 nM. It also gave an IC50 (second compound 1 µM) greater than 10000 nM, an IC50 (second compound 3.16 µM) greater than 10000 nM and an IC50 (second compound 10 µM) of 89.7 nM. The viability, T/C (second compound 0.0316 µM, first compound 0.0316 µM) was 101%, the viability, T/C (second compound 0.0316 µM, first compound 0.1 µM) was 110% and the viability, T/C (second compound 0.0316 µM, first compound 0.316 µM) was 102%. The viability, T/C (second compound 0.0316 µM, first compound 1 µM) was 94%, the viability, T/C (second compound 0.0316 µM, first compound 3.16 µM) was 97.5% and the viability, T/C (second compound 0.0316 µM, first compound 10 µM) was 70.3%. The viability, T/C (second compound 0.1 µM, first compound 0.0316 µM) was 93%, the viability, T/C (second compound 0.1 µM, first compound 0.1 µM) was 96% and the viability, T/C (second compound 0.1 µM, first compound 0.316 µM) was 105%. For the same compound, the viability, T/C (second compound 0.1 µM, first compound 1 µM) was 101%, the viability, T/C (second compound 0.1 µM, first compound 3.16 µM) was 95.7% and the viability, T/C (second compound 0.1 µM, first compound 10 µM) was 79.9%. It also gave a viability, T/C (second compound 0.316 µM, first compound 0.0316 µM) of 89%, a viability, T/C (second compound 0.316 µM, first compound 0.1 µM) of 96.8% and a viability, T/C (second compound 0.316 µM, first compound 0.316 µM) of 91.1%. It also gave a viability, T/C (second compound 0.316 µM, first compound 1 µM) of 99.2%, a viability, T/C (second compound 0.316 µM, first compound 3.16 µM) of 85.5% and a viability, T/C (second compound 0.316 µM, first compound 10 µM) of 72.9%. It also gave a viability, T/C (second compound 1 µM, first compound 0.0316 µM) of 81.2%, a viability, T/C (second compound 1 µM, first compound 0.1 µM) of 84.1% and a viability, T/C (second compound 1 µM, first compound 0.316 µM) of 75.4%. It also gave a viability, T/C (second compound 1 µM, first compound 1 µM) of 77.2%, a viability, T/C (second compound 1 µM, first compound 3.16 µM) of 76.3% and a viability, T/C (second compound 1 µM, first compound 10 µM) of 64.1%. It also gave a viability, T/C (second compound 3.16 µM, first compound 0.0316 µM) of 61.4%, a viability, T/C (second compound 3.16 µM, first compound 0.1 µM) of 59.5% and a viability, T/C (second compound 3.16 µM, first compound 0.316 µM) of 63.1%. The viability, T/C (second compound 3.16 µM, first compound 1 µM) was 61.4%, the viability, T/C (second compound 3.16 µM, first compound 3.16 µM) was 62.3% and the viability, T/C (second compound 3.16 µM, first compound 10 µM) was 51%. For the same compound, the viability, T/C (second compound 10 µM, first compound 0.0316 µM) was 49.5%, the viability, T/C (second compound 10 µM, first compound 0.1 µM) was 51.6% and the viability, T/C (second compound 10 µM, first compound 0.316 µM) was 47.3%. The viability, T/C (second compound 10 µM, first compound 1 µM) was 49.4%, the viability, T/C (second compound 10 µM, first compound 3.16 µM) was 42.3% and the viability, T/C (second compound 10 µM, first compound 10 µM) was 39.7%.

`Cn1cnc2c(F)c(Nc3ccc(Br)cc3Cl)c(C(=O)NOCCO)cc21` + CC(Nc1ncnc2nc[nH]c12)c1cc2cccc(Cl)c2c(=O)n1-c1ccccc1 gave an IC50 (second compound 0.0316 µM) of 208 nM, an IC50 (second compound 0.1 µM) of 170 nM and an IC50 (second compound 0.316 µM) of 41.7 nM. The IC50 (second compound 1 µM) was 24.5 nM, the IC50 (second compound 3.16 µM) was less than 9.49 nM and the IC50 (second compound 10 µM) was less than 9.49 nM. It also gave a viability, T/C (second compound 0.0316 µM, first compound 0.00949 µM) of 75%, a viability, T/C (second compound 0.0316 µM, first compound 0.03 µM) of 63.7% and a viability, T/C (second compound 0.0316 µM, first compound 0.0949 µM) of 50.3%. The viability, T/C (second compound 0.0316 µM, first compound 0.3 µM) was 50.5%, the viability, T/C (second compound 0.0316 µM, first compound 0.949 µM) was 44.5% and the viability, T/C (second compound 0.0316 µM, first compound 3 µM) was 31.8%. It also gave a viability, T/C (second compound 0.1 µM, first compound 0.00949 µM) of 72.2%, a viability, T/C (second compound 0.1 µM, first compound 0.03 µM) of 63.9% and a viability, T/C (second compound 0.1 µM, first compound 0.0949 µM) of 50.2%. It also gave a viability, T/C (second compound 0.1 µM, first compound 0.3 µM) of 47.5%, a viability, T/C (second compound 0.1 µM, first compound 0.949 µM) of 41.8% and a viability, T/C (second compound 0.1 µM, first compound 3 µM) of 30.6%. The viability, T/C (second compound 0.316 µM, first compound 0.00949 µM) was 65%, the viability, T/C (second compound 0.316 µM, first compound 0.03 µM) was 53% and the viability, T/C (second compound 0.316 µM, first compound 0.0949 µM) was 42.3%. It also gave a viability, T/C (second compound 0.316 µM, first compound 0.3 µM) of 41%, a viability, T/C (second compound 0.316 µM, first compound 0.949 µM) of 39.1% and a viability, T/C (second compound 0.316 µM, first compound 3 µM) of 34.6%. For the same compound, the viability, T/C (second compound 1 µM, first compound 0.00949 µM) was 56.1%, the viability, T/C (second compound 1 µM, first compound 0.03 µM) was 50.5% and the viability, T/C (second compound 1 µM, first compound 0.0949 µM) was 37.7%. It also gave a viability, T/C (second compound 1 µM, first compound 0.3 µM) of 39%, a viability, T/C (second compound 1 µM, first compound 0.949 µM) of 33.2% and a viability, T/C (second compound 1 µM, first compound 3 µM) of 26.8%. It also gave a viability, T/C (second compound 3.16 µM, first compound 0.00949 µM) of 44.7%, a viability, T/C (second compound 3.16 µM, first compound 0.03 µM) of 36.4% and a viability, T/C (second compound 3.16 µM, first compound 0.0949 µM) of 28.8%. It also gave a viability, T/C (second compound 3.16 µM, first compound 0.3 µM) of 27.1%, a viability, T/C (second compound 3.16 µM, first compound 0.949 µM) of 26.2% and a viability, T/C (second compound 3.16 µM, first compound 3 µM) of 19.8%. For the same compound, the viability, T/C (second compound 10 µM, first compound 0.00949 µM) was 32.8%, the viability, T/C (second compound 10 µM, first compound 0.03 µM) was 29.2% and the viability, T/C (second compound 10 µM, first compound 0.0949 µM) was 21.7%. The viability, T/C (second compound 10 µM, first compound 0.3 µM) was 22.6%, the viability, T/C (second compound 10 µM, first compound 0.949 µM) was 24% and the viability, T/C (second compound 10 µM, first compound 3 µM) was 12.9%.
